Measurements published in paper PMC11207953, “Phytochemical Investigation of Polyphenols from the Aerial Parts of Tanacetum balsamita Used in Transylvanian Ethnobotany and Parallel Artificial Membrane Permeability Assay” (Plants, 2024).

How the values were obtained:
[1] = design: method as in PMID 29182998; settings: isolated from Tanacetum parthenium; cited from earlier work
[2] = Parallel artificial membrane permeability assay for the blood–brain barrier (PAMPA-BBB), coupled with UHPLC-DAD; format: in vitro ADME; settings: constituent measured within T. balsamita 50% (v/v) ethanolic extract (TbE), donor pH 7.4, acceptor pH 7.4, 37 °C, Pe in cm/s, n = 9, read-out: logPe PAMPA-BBB (n = 9) (converted)
Excerpt: (§1) The ability of the compounds in T. balsamita extract (TbE and TbW) to cross biological membranes of the gastrointestinal (GI) tract and the blood–brain barrier (BBB) by passive diffusion was investigated using the PAMPA model. The coupling of this assay with UHPLC separation allowed the rapid simultaneous investigation of the membrane permeability of the compounds present in the extract (Figure 3). […] Due to the artificial nature of the membrane used in the assay, only passive transport mechanisms can occur, unlike in cell-based assays. This is particularly important in the case of plant extracts due to their complexity, as the evaluation of results obtained by different co-existing mechanisms (e.g., active transport, or metabolism) can be challenging. Furthermore, no significant differences in effective permeabilities are observed in the PAMPA, whether assessed with single compounds or mixtures. […]
(§2) After incubation, sandwich plates were separated, and the concentrations of each compound in the starting donor solution and in the acceptor and donor wells were determined in triplicate by chromatographic peak areas derived from the UHPLC-DAD method described above. UV spectra and chromatograms were recorded at 200–400 nm, and the chromatograms acquired at the UV absorption maxima of each compound were used for data evaluation. […]

[3] = Parallel artificial membrane permeability assay for the gastrointestinal tract (PAMPA-GI), coupled with UHPLC-DAD; format: in vitro ADME; settings: constituent measured within T. balsamita 50% (v/v) ethanolic extract (TbE), donor pH 6.8, acceptor pH 7.4, 37 °C, Pe in cm/s, n = 9, read-out: logPe PAMPA-GI (n = 9) (converted)
Excerpt: as §1, §2

| SMILES | permeability in the PAMPA-BBB model (in words) [1] | Papp at 4 h [2] [×10⁻⁶ cm/s] | Papp at 4 h [3] [×10⁻⁶ cm/s] |
| --- | --- | --- | --- |
| COc1ccc(-c2cc(=O)c3c(O)c(OC)c(O)c(OC)c3o2)cc1 [nevadensin] | good permeability | – | – |
| O=c1cc(-c2ccc(O)cc2)oc2cc(O)cc(O)c12 [Compound 86, apigenin] | good permeability | 34.7 | 17.8 |
| COc1ccc(-c2oc3cc(OC)c(OC)c(O)c3c(=O)c2OC)cc1O [casticin] | good permeability | – | – |
| COc1cc(-c2cc(=O)c3c(O)c(OC)c(O)c(OC)c3o2)ccc1O [sudachitin] | good permeability | – | – |
| COc1c(O)cc2oc(-c3ccc(O)c(O)c3)c(OC)c(=O)c2c1O [axillarin] | good permeability | – | – |
